Test results as given in the CheMixHub ionic liquid set.

Assay: xn = mol fraction of the nth substance listed

CC#N + CCCC[N+]1(C)CCCC1.O=S(=O)([O-])C(F)(F)F
101 kPa, x1 = 1
Conditions | viscosity [mPa·s]
288.15 K | 0.371
293.15 K | 0.355
298.15 K | 0.337

CCCC[n+]1ccn(C)c1.O=S(=O)([N-]S(=O)(=O)C(F)(F)F)C(F)(F)F + CO
296.35 K, 100 kPa, frequency 0.01 MHz
Conditions | electrical conductivity [S/m]
x1 = 0.008978 | 1.5
x1 = 0.01434 | 2.51
x1 = 0.02356 | 3.1
x1 = 0.04259 | 4.63
x1 = 0.08668 | 4.31

Conditions | electrical conductivity [S/m] | viscosity [mPa·s]
298 K, 100 kPa, x1 = 0.05 | – | 1.017
298 K, 100 kPa, x1 = 0.1927 | – | 3.181
298 K, 100 kPa, x1 = 0.2796 | – | 5.166
298 K, 100 kPa, x1 = 0.6962 | – | 23.01
298 K, 100 kPa, x1 = 1 | – | 49.7
298 K, 101 kPa, x2 = 0.3686 | 0.596 | –
298 K, 101 kPa, x2 = 0.4819 | – | 13.83
298 K, 101 kPa, x2 = 0.7921 | 2.43 | –
298.15 K, 100 kPa, x2 = 0.0986 | – | 42.43
298.15 K, 100 kPa, x2 = 0.7056 | – | 8.01
303.15 K, 100 kPa, x2 = 0 | – | 40.54
303.15 K, 100 kPa, x2 = 0.0986 | – | 34.9
303.15 K, 100 kPa, x2 = 0.4004 | – | 18.48
318.15 K, 100 kPa, x2 = 0.0986 | – | 20.96
318.15 K, 100 kPa, x2 = 0.295 | – | 14.8
318.15 K, 100 kPa, x2 = 0.4923 | – | 9.36
318.15 K, 100 kPa, x2 = 0.7056 | – | 4.52
323.15 K, 100 kPa, x2 = 0.7056 | – | 4.24
323.15 K, 100 kPa, x2 = 0.8978 | – | 1.12

CCCC[n+]1ccn(C)c1.O=S(=O)([N-]S(=O)(=O)C(F)(F)F)C(F)(F)F + N
Conditions | viscosity [mPa·s]
313.2 K, 101 kPa, x1 = 1 | 27.3

CN(C)C=O + CCCCCCCCn1cc[n+](C)c1.N#C[S-]
101 kPa, x2 = 0
Conditions | viscosity [mPa·s]
293.15 K | 0.881
303.15 K | 0.771
313.15 K | 0.668
323.15 K | 0.605
333.15 K | 0.553
353.15 K | 0.479
363.15 K | 0.447

CCCC[n+]1ccn(C)c1.O=S(=O)([N-]S(=O)(=O)C(F)(F)F)C(F)(F)F + O=C1CCCCCO1
100 kPa, frequency 0.01 MHz, x1 = 1
Conditions | electrical conductivity [S/m]
293.15 K | 0.337
298.15 K | 0.4
303.15 K | 0.472
308.15 K | 0.552
313.15 K | 0.64
318.15 K | 0.733
323.15 K | 0.835

CCCC[n+]1ccn(C)c1.O=S(=O)([N-]S(=O)(=O)C(F)(F)F)C(F)(F)F + CC1COC(=O)O1
101.3 kPa, x1 = 1
Conditions | viscosity [mPa·s]
288.15 K | 80.3
308.15 K | 33.95
328.15 K | 17.98
